Test results published in patent US20220305121A1, “N-ARYL SULFONAMIDE DERIVATIVES AS VACCINE ADJUVANT” (The Regents of the University of California, priority 2019, published 2022).
Entries after “also recorded” stand apart in the source; their conditions may differ.

Legend:
Format in all cases: cell-based
NF-κB and ISRE = NF-κB and ISRE reporter assays (primary screens), statements in words for both assays; settings: with LPS or IFN-α as primary stimulus; compared to compound 1
Protocol: (§1) THP1-Blue™ NF-κB cells were plated in 96-well plates at 10^5 cells/well in 100 μl RPMI supplemented with 10% fetal bovine serum (FBS, Omega Scientific, Inc., Tarzana, Calif.), 100 U/mL penicillin, 100 μg/ml streptomycin (Thermo Fisher Scientific) and Normocin (Invivogen). LPS was prepared in assay medium at a concentration of 20 μg/mL. Tested compounds were dissolved in DMSO at 1 mM as a stock solution and were further diluted in the LPS solution to a final concentration of 10 μM. 100 μL of this solution was then transferred to the plated cells to obtain a final concentration of LPS at 10 μg/mL and compound at 5 μM ([…]). The culture supernatants were harvested after a 20 hour incubation period, SEAP activity in the culture supernatants was determined by a colorimetric assay using QuantiBlue (Invivogen). Plate absorbance was read at 630 nm using a Tecan Infinite M200 plate reader (Männedorf, Switzerland). The SEAP concentration was directly proportional to NF-κB activity, which was 2-point normalized to yield activity of compound 1+LPS as 200% and activity for LPS as 100%.
(§2) ISRE-bla THP-1 cells were plated in 96-well plates at 5×10^4 cells/well in 50 μl RPMI supplemented with 10% dialyzed FBS (Atlanta Biologicals, Inc., GA), 0.1 mM nonessential amino acids, 1 mM sodium pyruvate, 100 U/mL penicillin and 100 μg/ml streptomycin. Type I IFN-α (R&D Systems, #11200-2) solution was prepared in assay medium at a concentration of 200 U/mL Tested compounds were dissolved in DMSO at 1 mM and were further diluted in the IFN-α solution to a final concentration of 10 μM. 50 μL of this solution was then transferred to the plated cells to obtain a final concentration of IFN-α at 100 U/mL and compound at 5 μM ([…]), The cells were incubated for 16 hours, after which 20 μL of 6×LiveBLAzer™ FRET B/G Substrate (CCF4-AM) mixture (prepared according to the manufacturer's instructions) was added to each well, Plates were incubated at room temperature in the dark for 3 hours. Fluorescence was measured on a Tecan Infinite M200 plate reader at an excitation wavelength of 405 nm, and emission wavelengths of 465 nm and 535 nm. Background values (cell free wells at the same fluorescence wavelength) were subtracted from the raw fluorescence intensity values and the emission ratios were calculated as the ratio of background subtracted fluorescence intensities at 465 nm to background subtracted fluorescence intensities at 535 nm. The ISRE activity values for these compounds were 2-point normalized to yield activity of compound 1+IFN-α as 200% and activity for IFN-α as 100%.
(§3) Measurement of NF-κB Activation Using THP1-Blue NF-κB Cells. THP1-Blue NF-κB cells were plated in 96-well plates at 10^5 cells/well in 100 μL of RPMI supplemented with 10% fetal bovine serum (FBS, Omega Scientific, Inc., Tarzana, Calif.), 100 U/mL penicillin, 100 μg/mL streptomycin (Thermo Fisher Scientific), and Normocin (Invivogen). LPS was prepared in assay medium at a concentration of 20 μg/mL. Tested compounds were dissolved in DMSO at 1 mM as a stock solution and were further diluted in the LPS solution to a final concentration of 10 μM. 100 μL of this solution was then transferred to the plated cells to obtain a final concentration of LPS at 10 μg/mL and compound at 5 μM ([…]). The culture supernatants were harvested after a 20 hours incubation period. SEAP activity in the culture supernatants was determined by a colorimetric assay using QuantiBlue (Invivogen). Plate absorbance was read at 630 nm using a Tecan Infinite M200 plate reader (Mannedorf, Switzerland). The SEAP concentration was directly proportional to NF-κB activity, which was two-point normalized to yield activity of compound 1+LPS as 200% and activity for LPS as 100%.
Measurement of ISRE Activity in ISRE-bla THP-1 Cells. […]

ISRE = test: Measurement of ISRE activity in ISRE-bla THP-1 cells (FRET, IFN-α as primary stimulus); settings: for activity at 5 µM: Homo sapiens, THP-1, read-out: ISRE % Activation
Protocol: as §2
Measurement of ISRE Activity in ISRE-bla THP-1 Cells. ISREbla THP-1 cells were plated in 96-well plates at 5×10^4 cells/well in 50 μL of RPMI supplemented with 10% dialyzed FBS (Atlanta Biologicals, Inc., GA), 0.1 mM nonessential amino acids, 1 mM sodium pyruvate, 100 U/mL penicillin, and 100 μg/mL streptomycin. Type I IFN-α (R&D Systems, no. 11200-2) solution was prepared in assay medium at a concentration of 200 U/mL. Tested compounds were dissolved in DMSO at 1 mM and were further diluted in the IFN-α solution to a final concentration of 10 μM. 50 μL of this solution was then transferred to the plated cells to obtain a final concentration of IFN-α at 100 U/mL and compound at 5 μM ([…]). The cells were incubated for 16 hours, after which 20 μL of 6×LiveBLAzer FRET B/G substrate (CCF4-AM) mixture (prepared according to the manufacturer's instructions) was added to each well. Plates were incubated at room temperature in the dark for 3 hours. Fluorescence was measured on a Tecan Infinite M200 plate reader at an excitation wavelength of 405 nm and emission wavelengths of 465 and 535 nm. Background values (cell free wells at the same fluorescence wavelength) were subtracted from the raw fluorescence intensity values and the emission ratios were calculated as the ratio of background subtracted fluorescence intensities at 465 nm to background subtracted fluorescence intensities at 535 nm. The ISRE activity values for these compounds were two-point normalized to yield activity of compound 1+IFN-α as 200% and activity for IFN-α as 100%.

THP-1 cells = test: Cell viability assay (MTT); settings: for MTT % Viability: compound 5 μM, 18 hours incubation, normalized to DMSO as 100%, mean
Protocol: THP-1 cells were plated in 96-well plates (10^5 cells/well) in 100 μL RPMI supplemented with 10% FBS, 100 U/mL penicillin and 100 μg/ml streptomycin. Compounds were dissolved in DMSO at 1 mM stock solution and were further diluted to 10 μM in the assay medium. 100 μL of this solution was added to the cells to obtain a final compound concentration of 5 μM ([…]). After 18 hours incubation, a solution of MTT in assay media (0.5 mg/mL) was added to each well and further incubated for 4 to 6 hours, followed by addition of cell lysis buffer (15% w/v SDS and 0.12% v/v 12N HCl aqueous solution), incubated overnight, and then absorbance measured at 570 nm using 650 nm as reference using Tecan Infinite M200 plate reader.
Cell Viability Assay. THP-1 cells were plated in 96-well plates (10^5 cells/well) in 100 μL RPMI supplemented with 10% FBS, 100 U/mL penicillin, and 100 μg/mL streptomycin. Compounds were dissolved in DMSO at 1 mM stock solution and were further diluted to 10 μM in the assay medium. 100 μL of this solution was added to the cells to obtain a final compound concentration of 5 μM ([…]). After 18 h incubation, a solution of MTT in assay media (0.5 mg/mL) was added to each well and further incubated for 4-6 hours, followed by addition of cell lysis buffer (15% w/v SDS and 0.12% v/v 12 N HCl aqueous solution), incubation overnight, and then absorbance was measured at 570 nm using 650 nm as reference using Tecan Infinite M200 plate reader.

NF-κB = test: Measurement of NF-κB activation using THP1-Blue NF-κB cells (SEAP reporter, LPS as primary stimulus); settings: compound 5 μM + LPS, 20 hour incubation; two point normalized: compound 1 + LPS = 200%, LPS = 100%; mean
Protocol: as §1, §3

[1] = compound 5 μM + IFN-α 100 U/mL, 16 hours, two point normalized: compound 1 + IFN-α = 200%, IFN-α = 100%, mean

SMILES	activity in NF-κB and ISRE assays (in words) (NF-κB and ISRE)	activity at 5 µM (ISRE; [1]) [%]	ISRE activity (in words) (ISRE; with IFN-α)	MTT % Viability (THP-1 cells) [%]	activity at 5 µM (NF-κB) [%]	ISRE % Activation (ISRE; [1]) [%]	NF-κB % Activation (NF-κB) [%]	toxicity in MTT assays (in words) (THP-1 cells; 5 μM)
CCOc1ccc(S(=O)(=O)Nc2cc(OC)c(Br)cc2OC)cc1 [Compound 7, N-(4-bromo-2,5-dimethoxyphenyl)-4-ethoxybenzenesulfonamide]	retained activity	235	slightly skewed ISRE activity	68.8	176			
C#CCN(c1cc(OC)c(N=[N+]=[N-])cc1OC)S(=O)(=O)c1ccc(OCC)cc1 [Compound 62, N-(4-azido-2,5-dimethoxyphenyl)-4-ethoxy-N-(prop-2-yn-1-yl) benzenesulfonamide]	very potent			73.4		182	217	
CCOc1ccc(S(=O)(=O)Nc2ccc(Cl)cc2OC)cc1 [Compound 5, N-(4-chloro-2-methoxyphenyl)-4-ethoxybenzenesulfonamide]	complete loss of activity; also recorded: significant loss of activity	109		78.3	141			
CCOc1ccc(S(=O)(=O)N(CCc2ccccc2)c2cc(OC)c(Cl)cc2OC)cc1 [Compound 47, N-(4-chloro-2,5-dimethoxyphenyl)-4-ethoxy-N-phenethylbenzenesulfonamide]	potent analogs	141		44	131			somewhat higher toxicity
CCOc1ccc(S(=O)(=O)N(CC(C)C)c2cc(OC)c(Cl)cc2OC)cc1 [Compound 41, N-(4-chloro-2,5-dimethoxyphenyl)-4-ethoxy-N-isobutylbenzenesulfonamide]	regained the activity in both the NF-κB and ISRE assays	193		76.7	175			
COc1ccc(S(=O)(=O)Nc2cc(OC)c(Cl)cc2OC)cc1N [Compound 60, 3-Amino-N-(4-chloro-2,5-dimethoxyphenyl)-4-methoxybenzenesulfonamide]	resurgence of activity			77.3				
CCOc1ccc(NS(=O)(=O)c2cc(OC)c(Cl)cc2OC)cc1 [Compound 31, 4-Chloro-N-(4-ethoxyphenyl)-2,5-dimethoxybenzenesulfonamide]	inactivity							
COc1cc(NS(=O)(=O)c2ccc(C(=O)O)cc2)c(OC)cc1Cl [Compound 28, 4-(N-(4-chloro-2,5-dimethoxyphenyl)sulfamoyl)benzoic acid]	lost activity			98.2				
CCOc1ccc(S(=O)(=O)Nc2cc(OC)c(N=[N+]=[N-])cc2OC)cc1 [Compound 59, N-(4-azido-2,5-dimethoxyphenyl)-4-ethoxybenzenesulfonamide]	potent			76.6				
CCCCN(c1cc(OC)c(Cl)cc1OC)S(=O)(=O)c1ccc(OCC)cc1 [Compound 35, N-(4-chloro-2,5-dimethoxyphenyl)-4-ethoxy-N-butylbenzenesulfonamide]		156		77.7	192			
CCCCCCCN(c1cc(OC)c(Cl)cc1OC)S(=O)(=O)c1ccc(OCC)cc1 [Compound 38, N-(4-chloro-2,5-dimethoxyphenyl)-4-ethoxy-N-heptylbenzenesulfonamide]		95		90.4	108			
CCCCCCN(c1cc(OC)c(Cl)cc1OC)S(=O)(=O)c1ccc(OCC)cc1 [Compound 37, N-(4-chloro-2,5-dimethoxyphenyl)-4-ethoxy-N-hexylbenzenesulfonamide]		99		95.2	81			
COc1cc(NS(=O)(=O)c2ccc([N+](=O)[O-])cc2)c(OC)cc1Cl [Compound 17, N-(4-chloro-2,5-dimethoxyphenyl)-4-nitrobenzenesulfonamide]		103		97.4	101			
COc1cc(NS(=O)(=O)c2ccc(C#N)cc2)c(OC)cc1Cl [Compound 19, N-(4-chloro-2,5-dimethoxyphenyl)-4-cyanobenzenesulfonamide]		106		102.9	97			
COc1cc(NS(=O)(=O)c2ccc(OC)c(N=[N+]=[N-])c2)c(OC)cc1Cl [Compound 61, 3-Azido-N-(4-chloro-2,5-dimethoxyphenyl)-4-methoxybenzenesulfonamide]	inactive			87.2				
